Experimental findings from patent US7273880B2, “Selective NPY (Y5) antagonists” (H. Lunbeck A/S, priority 1999, dated 2007) are described below.

Test [1] addresses T1, human Y5 receptor (hNPY-5) (Homo sapiens, UniProt Q15761).
T1 construct: expressed in transfected cells; host or cells: mouse fibroblast LM(tk-) cells, e.g. L-hY5-7 (ATCC CRL-11995)
T1 sequence (Q15761 1-445): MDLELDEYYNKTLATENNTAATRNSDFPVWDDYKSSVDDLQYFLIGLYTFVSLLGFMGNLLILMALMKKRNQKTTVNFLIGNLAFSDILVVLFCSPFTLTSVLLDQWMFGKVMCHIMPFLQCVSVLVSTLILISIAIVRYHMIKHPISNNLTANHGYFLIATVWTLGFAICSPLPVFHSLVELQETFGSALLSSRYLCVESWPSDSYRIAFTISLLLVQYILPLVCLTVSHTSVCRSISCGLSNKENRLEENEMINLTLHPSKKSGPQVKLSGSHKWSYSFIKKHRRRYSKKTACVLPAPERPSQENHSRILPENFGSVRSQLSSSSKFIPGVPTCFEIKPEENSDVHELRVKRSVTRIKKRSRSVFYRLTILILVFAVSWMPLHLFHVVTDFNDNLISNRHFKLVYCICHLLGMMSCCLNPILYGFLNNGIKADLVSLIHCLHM
Put plainly: Radioligand binding to membranes, cloned human Y5 receptor. Particulars: cloned human NPY Y5 receptor, radioligand competition binding; Tables 1-3; read-out: Ki, nM hNPY-5. In short, it runs like this: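 Competition binding on membranes from stably transfected 293 or LM(tk-) cells, with 0.08 nM ¹²⁵I-PYY in pH 7.4 HEPES buffer plus 0.1% BSA, 120 min at 30 °C, filtration and counting. Nonspecific binding defined by 300 nM human NPY, or 100 nM human PP for Y4; nonlinear regression.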
A general note: Displacement assays read how much labelled ligand stays bound in the presence of the test substance.

Test [2] has as its target hNPY-1,2,4 (human Y1, Y2, Y4 receptors). In words: Radioligand binding to membranes, cloned human Y1, Y2 and Y4 receptors. To be noted: one bound given for all three. On the procedure: Binding of the compounds of the present invention to human Y1, Y2, Y4, and Y5 receptors was evaluated using stably transfected 293 or LM(tk-) cells as described above. Stably transfected cell lines which may be used for binding assays include, for example, for the human Y1 receptor, 293-hY1-5 (deposited Jun. 4, 1996, under ATCC Accession No. CRL-12121), for the human Y2 receptor, 293-hY2-10 (deposited Jan. 27, 1994, under ATCC Accession No. CRL-11537), for the human Y4 receptor, L-hY4-3 (deposited Jan. 11, 1995, under ATCC Accession No. CRL-11779), and for human Y5 receptor, L-hY5-7 (deposited Nov. 15, 1995, under ATCC Accession No. CRL-11995). These cell lines were deposited with the American Type Culture Collection (ATCC), 10801 University Blvd., Manassas, Va. 20110-2209, U.S.A. under the provisions of the Budapest Treaty for the International Recognition of the Deposit of Microorganisms for the Purposes of Patent Procedure.
Membranes were harvested from COS-7 cells 48 hours after transient transfection. Adherent cells were washed twice in ice-cold phosphate buffered saline (138 mM NaCl, 8.1 mM Na2HPO4, 2.5 mM KCl, 1.2 mM KH2PO4, 0.9 mM CaCl2, 0.5 mM MgCl2, pH 7.4) and lysed by sonication in ice-cold sonication buffer (20 mM Tris-HCl, 5 mM EDTA, pH 7.7). Large particles and debris were cleared by low speed centrifugation (200×g, 5 min, 4° C.). Membranes were collected from the supernatant fraction by centrifugation (32,000×g, 18 min, 4° C.), washed with ice-cold hypotonic buffer, and collected again by centrifugation (32,000×g, 18 min, 4° C.). The final membrane pellet was resuspended by sonication into a small volume of ice-cold binding buffer (˜1 ml for every 5 plates: 10 mM NaCl, 20 mM HEPES, 0.22 mM KH2PO4, 1.26 mM CaCl2, 0.81 mM MgSO4, pH 7.4). Protein concentration was measured by the Bradford method (Bradford, 1976) using Bio-Rad Reagent, with bovine serum albumin as a standard. Membranes were held on ice for up to one hour and used fresh, or flash-frozen and stored in liquid nitrogen.
Membranes were prepared similarly from 293, LM(tk-), and NIH-3T3 cells. To prepare membranes from baculovirus infected cells, 2×10^7 Sf21 cells were grown in 150 mm tissue culture dishes and infected with a high-titer stock of hY5BB3. Cells were incubated for 2-4 days at 27° C., no CO2 before harvesting and membrane preparation as described above.
Membrane suspensions were diluted in binding buffer supplemented with 0.1% bovine serum albumin to yield an optimal membrane protein concentration so that ^125I-PYY (or alternative radioligand such as ^125I-NPY, ^125I-PYY3-36, or ^125I-[Leu^31Pro^34]PYY) bound by membranes in the assay was less than 10% of ^125I-PYY (or alternative radioligand) delivered to the sample (100,000 dpm/sample=0.08 nM for competition binding assays). ^125I-PYY (or alternative radioligand) and peptide competitors were also diluted to desired concentrations in supplemented binding buffer. Individual samples were then prepared in 96-well polypropylene microtiter plates by mixing 125I-PYY (25 μL) (or alternative radioligand), competing peptides or supplemented binding buffer (25 μL), and finally, membrane suspensions (200 μL). Samples were incubated in a 30° C. water bath with constant shaking for 120 min. Incubations were terminated by filtration over Whatman GF/C filters (pre-coated with 1% polyethyleneimine and air-dried before use), followed by washing with 5 mL of ice-cold binding buffer. Filter-trapped membranes were impregnated with MeltiLex solid scintillant (Wallac, Turku, Finland) and counted for ^125I in a Wallac Beta-Plate Reader. Alternatively, incubations were carried out in GF/C filter plates (pre-coated with 1% polyethyleneimine and air-dried before use), followed by vacuum filtration and three washes of 300 μL of ice-cold binding buffer. 50 μL of UltimaGold (Packard) scintillant were added and counted for ^125I in a Wallac MicroBeta Trilux. […]

Molecules are shown by their SMILES. Where only a bound is given, the exact number is not on record here.

As to `Cc1noc(C)c1S(=O)(=O)NC[C@H]1CC[C@H](Nc2nc3c(s2)CCCc2ccc(F)cc2-3)CC1` [Example 33, trans-1-Aza-9-fluoro-4,5-dihydro-2-{4-(3,5-dimethylisoxazol-4-yl)sulfonylaminomethyl}cyclohexyl-amino-3-thia-benzo[e]azulene], the Ki – broadly, the dissociation constant of the complex between target and ligand, obtained from inhibition or displacement – in test [1] is 6.8 nM; in test [2], more than 10000 nM.
In the case of `O=S(=O)(NCCCCCNc1nc2c(s1)CCCc1ccc(F)cc1-2)c1ccc(F)cc1F` [Example 12, 1-Aza-9-fluoro-4,5-dihydro-2-(5-(2,4-difluoro-phenyl)sulfonylamino)pentylamino-3-thia-benzo[e]-azulene], the Ki in test [1] was 6.1 nM; in test [2], more than 1000 nM.
As to `O=S(=O)(Cc1ccccc1)NC[C@H]1CC[C@H](Nc2nc3c(s2)CCCc2ccc(F)cc2-3)CC1` [Example 29, trans-1-Aza-2-{4-benzylsulfonylaminomethyl}-cyclohexylamino-9-fluoro-4,5-dihydro-3-thia-benzo[e]-azulene], the results for the Ki in test [1] and in test [2] were 10.3 nM and more than 10000 nM, respectively.
The like results for `Cc1noc(C)c1S(=O)(=O)NCCCCCNc1nc2c(s1)CCCc1ccc(F)cc1-2` [Example 24, 1-Aza-9-fluoro-4,5-dihydro-2-(5-(3,5-dimethyl-isoxazol-4-yl)sulfonylamino)pentylamino-3-thia-benzo[e]azulene] were, in that order, 3.5 nM and more than 10000 nM.
Take `O=S(=O)(N[C@H]1CC[C@H](Nc2nc3c(s2)CCCc2ccc(F)cc2-3)CC1)c1cccnc1` [Example 54, trans-1-Aza-9-fluoro-4,5-dihydro-2-(4-(3-pyridyl-sulfonylamino)cyclohexyl)amino-3-thia-benzo[e]azulene]: the Ki in test [1] is 11.9 nM; in test [2], more than 10000 nM.
For the compound `O=S(=O)(NCCCCCNc1nc2c(s1)CCCc1ccc(F)cc1-2)c1ccc(F)c(F)c1` [Example 17, 1-Aza-2-(5-(3,4-difluorophenyl)sulfonylamino)-pentylamino-9-fluoro-4,5-dihydro-3-thia-benzo[e]-azulene], the inhibition constant Ki in test [1] was 11 nM; in test [2], more than 10000 nM.
The like results for `O=S(=O)(CC(F)(F)F)NCCCCNc1nc2c(s1)CCCc1ccc(F)cc1-2` [Example 39, 1-Aza-9-fluoro-4,5-dihydro-2-(4-(2,2,2-trifluoroethyl)-sulfonylamino)butylamino-3-thia-benzo[e]azulene] were, in that order, 4.8 nM and more than 10000 nM.
For `CCN(CC)S(=O)(=O)NCCCCNc1nc2c(s1)CCCc1ccc(F)cc1-2` [Example 22, 1-Aza-2-(4-diethylaminosulfonylamino)butylamino-9-fluoro-4,5-dihydro-3-thia-benzo[e]azulene], the inhibition constant (Ki) in test [1] is 2.9 nM; in test [2], more than 10000 nM.
Take `O=S(=O)(NC[C@H]1CC[C@H](Nc2nc3c(s2)CCCc2ccc(F)cc2-3)CC1)c1cccs1` [Example 30, trans-N2-(4-(2-Thienylsulfonyl)aminomethyl)-cyclohexyl-9-fluoro-5,6-dihydro-4H-benzo[6,7]-cyclohepta[d][1,3]thiazol-2-amine]: the figures for the Ki in test [1] and in test [2] were 4.2 nM and more than 10000 nM, respectively.
Turning to `CS(=O)(=O)NCCCCNc1nc2c(s1)CCCc1ccc(F)cc1-2` [Example 5, 1-Aza-9-fluoro-4,5-dihydro-2-(4-(methane-sulfonylamino)-butyl)amino-3-thia-benzo[e]azulene], the inhibitory constant (Ki) was 19.8 nM in test [1] and more than 10000 nM in test [2].
On to `O=S(=O)(Cc1ccccc1)NCCCCCNc1nc2c(s1)CCCc1ccc(F)cc1-2` [Example 16, 1-Aza-2-(5-benzylsulfonylamino)pentylamino-9-fluoro-4,5-dihydro-3-thia-benzo[e]azulene], for which the Ki in test [1] was 4.7 nM; in test [2], more than 10000 nM.
Taken in the same sequence, the figures for `COc1ccc(C)cc1S(=O)(=O)NC[C@H]1CC[C@H](Nc2nc3c(s2)CCOc2ccccc2-3)CC1` [Example 48, trans-1-Aza-4,5-dihydro-2-{4-(2-methoxy-5-methyl)phenyl-sulfonylaminomethyl}cyclohexylamino-6-oxa-3-thia-benzo[e]azulene] were 15.1 nM and more than 10000 nM.
Taken in the same sequence, the figures for `O=S(=O)(NCCCCNc1nc2c(s1)CCCc1ccc(F)cc1-2)c1ccccc1F` [Example 7, 1-Aza-9-fluoro-2-(4-(2-fluorophenyl)sulfonylamino)-butylamino-4,5-dihydro-3-thia-benzo[e]azulene] were 23 nM and more than 10000 nM.
Taken in the same sequence, the figures for `O=S(=O)(N[C@H]1CC[C@H](CNc2nc3c(s2)CCCc2ccc(F)cc2-3)CC1)c1ccccc1F` [Example 42, trans-1-Aza-9-fluoro-2-{4-(2-fluoro)phenylsulfonyl-amino}-cyclohexylmethylamino-4,5-dihydro-3-thia-benzo[e]azulene] were 3.9 nM and more than 10000 nM.
Regarding `CCS(=O)(=O)NCCCCCNc1nc2c(s1)CCCc1ccc(F)cc1-2` [Example 21, 1-Aza-9-fluoro-2-(5-ethylsulfonylamino)pentylamino-4,5-dihydro-3-thia-benzo[e]azulene], the Ki in test [1] was 2.5 nM; in test [2], more than 10000 nM.
`CS(=O)(=O)NCCCCCNc1nc2c(s1)CCCc1ccc(F)cc1-2` [Example 10, 1-Aza-9-fluoro-4,5-dihydro-2-(5-(methylsulfonyl-amino)-pentyl)amino-3-thia-benzo [e]azulene]: the inhibition constant Ki in test [1] was 2.4 nM; in test [2], more than 10000 nM.
`O=S(=O)(NC[C@H]1CC[C@H](Nc2nc3c(s2)CCCc2ccc(F)cc2-3)CC1)c1ccc(F)c(F)c1` [Example 40, trans-1-Aza-9-fluoro-2-{4-(3,4-difluorophenyl)-sulfonyl-aminomethyl}cyclohexylamino-4,5-dihydro-3-thia-benzo[e]azulene]: the Ki in test [1] was 19.5 nM; in test [2] it was more than 10000 nM.
For `CCN(CC)S(=O)(=O)NCCCCNc1nc2c(s1)CCSc1ccccc1-2` [Example 104, N′-[4-(4,5-Dihydrobenzo[2,3]thiepino[4,5-d][1,3]thiazol-2-ylamino)butyl]-N,N-diethylsulfamide], the results for the Ki in test [1] and in test [2] were 3.2 nM and more than 10000 nM, respectively.
